≈ marks a conversion by molar mass, not a printed value. Where a name gives a salt, the structure may show the parent alone. Read-outs that look alike come from different tables or passages of the source.
Columns and labels:
Test in all cases: microbe, parasite or virus in culture
[1] = system: Mtb-lineage2; assay type: cell-based, Mycobacterium tuberculosis; conditions: for direct inhibition of growth: Mtb-lineage2, in-vitro, 5, 10 and 50 μM, over 20 days; for IC50 / MIC: Mycobacterium tuberculosis
[2] = system: Mtb-lineage4; assay type: cell-based, Mycobacterium tuberculosis; conditions: for direct inhibition of growth: Mtb-lineage4, in-vitro, 5, 10 and 50 μM, over 20 days
[3] = system: M. bovis; assay type: cell-based, Mycobacterium bovis; conditions: for MIC: Mycobacterium tuberculosis variant bovis
[4] = system: Maf-lineage5; assay type: cell-based, Mycobacterium africanum; conditions: for direct inhibition of growth: Maf-lineage5, in-vitro, 5, 10 and 50 μM, over 20 days
[5] = system: Maf-lineage6; assay type: cell-based, Mycobacterium africanum; conditions: for direct inhibition of growth: Maf-lineage6, in-vitro, 5, 10 and 50 μM, over 20 days; for MIC: Mycobacterium tuberculosis

**Q.** For C#Cc1cccc(Nc2ncnc3cc(OCCOC)c(OCCOC)cc23)c1 [Erlotinib], which “direct inhibition of growth” value [1] is on record?
**A.** directly inhibit growth

**Q.** What about the IC50 ([1]; 360 h, Mtb-lineage2, Day 15) of the same compound?
**A.** 16.3 µM

**Q.** And the MIC ([1]; 360 h, Mtb-lineage2, Day 15, read-out: MIC)?
**A.** 33 µM (≈ 13 µg/mL)

**Q.** What about the IC50 ([1]; 384 h, Mtb-lineage2, Day 16) of the same compound?
**A.** 10.1 µM

**Q.** What about the MIC ([1]; 384 h, Mtb-lineage2, Day 16, read-out: MIC) of the same compound?
**A.** ~1.07 µM (≈ 0.423 µg/mL)

**Q.** And the IC50 ([1]; 408 h, Mtb-lineage2, Day 17)?
**A.** 8.65 µM

**Q.** What about the MIC ([1]; 408 h, Mtb-lineage2, Day 17, read-out: MIC) of the same compound?
**A.** 41 µM (≈ 16.1 µg/mL)

**Q.** And the IC50 ([1]; 456 h, Mtb-lineage2, Day 19)?
**A.** 6.79 µM

**Q.** And the MIC ([1]; 456 h, Mtb-lineage2, Day 19, read-out: MIC)?
**A.** 49.4 µM (≈ 19.4 µg/mL)

**Q.** And the IC50 ([1]; 480 h, Mtb-lineage2, Day 20)?
**A.** 6.19 µM

**Q.** And the IC50 ([1]; […], Mtb-lineage2, Day 18)?
**A.** 7.61 µM

**Q.** And the MIC ([1]; […], Mtb-lineage2, Day 18, read-out: MIC)?
**A.** 43.6 µM (≈ 17.1 µg/mL)

**Q.** What about the “direct inhibition of growth” value [2] of the same compound?
**A.** directly inhibit growth

**Q.** What about the “direct inhibition of growth” value [3] of the same compound?
**A.** directly inhibit growth

**Q.** What about the “direct inhibition of growth” value [4] of the same compound?
**A.** directly inhibit growth

**Q.** And the “direct inhibition of growth” value [5]?
**A.** directly inhibit growth

**Q.** COc1cc2ncnc(Nc3ccc(F)c(Cl)c3)c2cc1OCCCN1CCOCC1 [Gefitinib] was tested. Which MIC ([1]; 240 h) did it give?
**A.** 54.3 µM (≈ 24.3 µg/mL)

**Q.** And the MIC ([1]; 288 h)?
**A.** 54.3 µM (≈ 24.3 µg/mL)

**Q.** And the MIC ([1]; 312 h)?
**A.** 52.2 µM (≈ 23.3 µg/mL)

**Q.** What about the MIC ([1]; 336 h) of the same compound?
**A.** 54.8 µM (≈ 24.5 µg/mL)

**Q.** What about the MIC ([1]; […]) of the same compound?
**A.** 52.7 µM (≈ 23.6 µg/mL)

**Q.** Which results are given for Cc1ccc(NC(=O)c2ccc(CN3CCN(C)CC3)cc2)cc1Nc1nccc(-c2cccnc2)n1 [Imatinib, Imatinib mesylate]?
**A.** susceptibility to direct inhibition ([1]; Example 4, Mtb-lineage2, concentrations up to 200 μM): more susceptible to direct inhibition; direct inhibition of growth [1]: directly restricted the growth; MIC ([1]; 240 h, Mtb-lineage2 (a), Day 10, read-out: MIC): 56 µM; MIC ([1]; 240 h, Mtb-lineage2 (b), Day 10, read-out: MIC): 60.4 µM; MIC ([1]; 240 h, Mtb-lineage2, Day 10, read-out: MIC): 56 µM; MIC ([1]; 288 h, Mtb-lineage2 (a), Day 12, read-out: MIC): 56.7 µM; MIC ([1]; 288 h, Mtb-lineage2 (b), Day 12, read-out: MIC): 60.7 µM; MIC ([1]; 288 h, Mtb-lineage2, Day 12, read-out: MIC): 56.7 µM; MIC ([1]; 312 h, Mtb-lineage2 (a), Day 13, read-out: MIC): 57.1 µM; MIC ([1]; 312 h, Mtb-lineage2 (b), Day 13, read-out: MIC): 60.5 µM; MIC ([1]; 312 h, Mtb-lineage2, Day 13, read-out: MIC): 57.1 µM; MIC ([1]; 336 h, Mtb-lineage2 (a), Day 14, read-out: MIC): 57.4 µM; MIC ([1]; 336 h, Mtb-lineage2 (b), Day 14, read-out: MIC): 85.4 µM; MIC ([1]; 336 h, Mtb-lineage2, Day 14, read-out: MIC): 57.4 µM; MIC ([1]; 360 h, Mtb-lineage2 (a), Day 15, read-out: MIC): 57.8 µM; MIC ([1]; 360 h, Mtb-lineage2 (b), Day 15, read-out: MIC): 86.7 µM; MIC ([1]; […], Mtb-lineage2 (a), Day 11, read-out: MIC): 56.4 µM; MIC ([1]; […], Mtb-lineage2 (b), Day 11, read-out: MIC): 61 µM; MIC ([1]; […], Mtb-lineage2, Day 11, read-out: MIC): 56.4 µM; susceptibility to direct inhibition ([2]; Example 4, Mtb-lineage4, concentrations up to 200 μM): more susceptible to direct inhibition; MIC ([2]; Mtb-lineage4, Day 11): Unstable; MIC ([2]; Mtb-lineage4, Day 12): Unstable; MIC ([2]; Mtb-lineage4, Day 13): Unstable; MIC ([2]; Mtb-lineage4, Day 14): Unstable; direct inhibition of growth [2]: not; MIC ([2]; Mycobacterium tuberculosis, 240 h, Mtb-lineage4, Day 10, read-out: MIC): 98.8 µM; direct inhibition of growth [3]: directly restricted the growth; susceptibility to direct inhibition [3]: more susceptible to direct inhibition; MIC ([3]; 240 h): 8.39 µM; MIC ([3]; 288 h): 21.1 µM; MIC ([3]; 312 h): 25.6 µM; MIC ([3]; 336 h): 30.3 µM; MIC ([3]; 360 h): 35.2 µM; MIC ([3]; […]): 16.3 µM; MIC ([4]; 240 h, Maf-lineage5, Day 10): 58.1 µM; MIC ([4]; 288 h, Maf-lineage5, Day 12): 60.8 µM; MIC ([4]; 312 h, Maf-lineage5, Day 13): 62 µM; MIC ([4]; 336 h, Maf-lineage5, Day 14): 63.4 µM; MIC ([4]; 360 h, Maf-lineage5, Day 15): 65.2 µM; susceptibility to direct inhibition ([4]; Example 4, Maf-lineage5, concentrations up to 200 μM): more susceptible to direct inhibition; MIC ([4]; Maf-lineage5, Day 11): 59.5 µM; direct inhibition of growth [4]: not; response to drug [5]: didn't respond; susceptibility to direct inhibition ([5]; Example 4, Maf-lineage6 (c), concentrations up to 200 μM): more susceptible to direct inhibition; direct inhibition of growth [5]: not; MIC ([5]; 240 h, Maf-lineage6 (a), Day 10): ~0.743 µM; MIC ([5]; 240 h, Maf-lineage6 (b), Day 10): ~9090 µM; MIC ([5]; 240 h, Maf-lineage6 (c), Day 10): 101 µM; MIC ([5]; 240 h, Maf-lineage6 (d), Day 10): ~46400 µM; MIC ([5]; 288 h, Maf-lineage6 (a), Day 12): ~0.594 µM; MIC ([5]; 288 h, Maf-lineage6 (b), Day 12): 1460 µM; MIC ([5]; 288 h, Maf-lineage6 (c), Day 12): 100 µM; MIC ([5]; 312 h, Maf-lineage6 (a), Day 13): ~0.562 µM; MIC ([5]; 312 h, Maf-lineage6 (b), Day 13): 1260 µM; MIC ([5]; 312 h, Maf-lineage6 (c), Day 13): 100 µM; MIC ([5]; 336 h, Maf-lineage6 (a), Day 14): ~0.541 µM; MIC ([5]; 336 h, Maf-lineage6 (b), Day 14): 1520 µM; MIC ([5]; 336 h, Maf-lineage6 (c), Day 14): 100 µM; MIC ([5]; 360 h, Maf-lineage6 (a), Day 15): ~0.515 µM; MIC ([5]; 360 h, Maf-lineage6 (b), Day 15): ~3590 µM; MIC ([5]; 360 h, Maf-lineage6 (c), Day 15): 100 µM; MIC ([5]; […], Maf-lineage6 (a), Day 11): ~0.721 µM; MIC ([5]; […], Maf-lineage6 (b), Day 11): ~2390 µM; MIC ([5]; […], Maf-lineage6 (c), Day 11): 101 µM

— patent publication US20250375455A1 (priority 2022, published 2025)
